Test results as given in patent US20110021565A1, “PIPERIDINE DERIVATIVES AS NK3 ANTAGONISTS” (priority 2007, published 2011).
Where a name gives a salt, the structure may show the parent alone. Read-outs that look alike come from different tables or passages of the source.

Molecular target: T1, recombinant human NK3 receptor (Homo sapiens, UniProt P29371)
T1 construct: expressed in transfected cells; host or cells: HEK293 cells, transient expression; membrane preparation
T1 sequence (P29371 1-465): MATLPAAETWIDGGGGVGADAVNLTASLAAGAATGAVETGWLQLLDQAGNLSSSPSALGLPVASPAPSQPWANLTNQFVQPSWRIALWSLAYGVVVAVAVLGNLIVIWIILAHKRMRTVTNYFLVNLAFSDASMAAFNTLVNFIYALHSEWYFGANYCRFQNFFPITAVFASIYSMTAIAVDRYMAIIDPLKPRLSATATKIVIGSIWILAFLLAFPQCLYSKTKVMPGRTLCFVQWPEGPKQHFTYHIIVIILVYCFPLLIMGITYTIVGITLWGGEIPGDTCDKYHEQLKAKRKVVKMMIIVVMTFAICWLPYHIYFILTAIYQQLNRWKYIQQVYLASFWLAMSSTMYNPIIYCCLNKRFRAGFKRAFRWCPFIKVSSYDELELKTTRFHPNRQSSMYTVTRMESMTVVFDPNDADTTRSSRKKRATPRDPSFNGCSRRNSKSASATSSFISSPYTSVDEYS
Assay: [3H]SR142801 competition binding assay
Procedure, shortened: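 Ki derived by Cheng-Prusoff from Hill-fitted IC50 curves, duplicates, 10 μM SB222200 defining nonspecific binding. Radioligand used at KD concentration against compound at 0.0003-10 μM; transiently transfected HEK293 membranes, 5 μg/well, 75 min room temperature, Tris-HCl/MnCl2/phosphoramidon/BSA pH 7.4. Filter-bound counts read by scintillation.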

[1] = [3H]SR142801, membranes of HEK293 cells transiently expressing recombinant human NK3 receptor, read-out: hNK3 Ki
[2] = representative compounds, [3H]SR142801, HEK293 membranes, human NK3 receptor, read-out: Ki NK3 h

Question: Which results are given for `COCCN(C(C)=O)C1CCN(CCC(C)(C(=O)N[C@@H](CO)c2ccc(Cl)c(Cl)c2)c2ccc(Cl)c(Cl)c2)CC1` (stereo partly drawn) [Example 148, 4-{4-[Acetyl-(2-methoxy-ethyl)-amino]-piperidin-1-yl}-2-(3,4-dichloro-phenyl)-N-[1-(3,4-dichloro-phenyl)-2-hydroxy-ethyl]-2-methyl-butyramide (diastreoisomer 1)]?
Answer: Ki [1]: 3.8 nM; Ki [2]: 3.8 nM

Question: For `CN(Cc1ccc(Cl)cc1)C(=O)C(C)(CCN1CCC(N2CCCC2=O)CC1)c1ccc(Cl)c(Cl)c1` (stereo not shown) [Example 84, N-(4-Chloro-benzyl)-2-(3,4-dichloro-phenyl)-2,N-dimethyl-4-[4-(2-oxo-pyrrolidin 1-yl)-piperidin-1-yl]-butyramide], which Ki [1] is on record?
Answer: 2.1 nM

Question: What about the Ki [2] of the same compound?
Answer: 2.1 nM

Question: For `CC(CCN1CCC(N2CCCC2=O)CC1)(C(=O)NCc1ccc(F)c(C(F)(F)F)c1)c1ccc(Cl)c(Cl)c1` (stereo not shown) [Example 131, 2-(3,4-Dichloro-phenyl)-N-(4-fluoro-3-trifluoromethyl-benzyl)-2-methyl-4-[4-(2-oxo-pyrrolidin-1-yl)-piperidin-1-yl]-butyramide], which Ki [1] is on record?
Answer: 3.4 nM

Question: What about the Ki [2] of the same compound?
Answer: 3.4 nM

Question: For `CC[C@@H](NC(=O)C(C)(CCN1CCC(N2CCCC2=O)CC1)c1ccc(Cl)c(Cl)c1)c1ccccc1` (stereo partly drawn) [Example 128, 2-(3,4-Dichloro-phenyl)-2-methyl-4-[4-(2-oxo-pyrrolidin-1-yl)-piperidin-1-yl]-N-((R)-1-phenyl-propyl)-butyramide], which Ki [1] is on record?
Answer: 90.2 nM

Question: Which results are given for `CCN(C1CCN(CCC(C)(C(=O)N(C)Cc2ccc(F)c(C(F)(F)F)c2)c2ccc(Cl)c(Cl)c2)CC1)S(C)(=O)=O` (stereo not shown) [Example 74, 2-(3,4-Dichloro-phenyl)-4-[4-(ethyl-methanesulfonyl-amino)-piperidin-1-yl]-N-(4-fluoro-3-trifluoromethyl-benzyl)-2,N-dimethyl-butyramide]?
Answer: Ki [1]: 1.3 nM; Ki [2]: 1.3 nM

Question: Which results are given for `CCN(C1CCN(CCC(C)(C(=O)NCc2ccc(Cl)c(Cl)c2)c2ccc(Cl)c(Cl)c2)CC1)S(C)(=O)=O` (stereo not shown) [Example 71, N-(3,4-Dichloro-benzyl)-2-(3,4-dichloro-phenyl)-4-[4-(ethyl-methanesulfonyl-amino)-piperidin-1-yl]-2-methyl-butyramide]?
Answer: Ki [1]: 2.8 nM; Ki [2]: 2.8 nM

Question: With `CN(C1CCN(CCC(C)(C(=O)NC(c2ccccc2)C(F)(F)F)c2ccc(Cl)c(Cl)c2)CC1)S(C)(=O)=O` (stereo not shown) [Example 51, 2-(3,4-Dichloro-phenyl)-4-[4-(methanesulfonyl-methyl-amino)-piperidin-1-yl]-2-methyl-N-(2,2,2-trifluoro-1-phenyl-ethyl)-butyramide] as the compound, how does the Ki [1] read?
Answer: 18.7 nM

Question: How did the Ki [1] turn out when `CN(Cc1cccc(Cl)c1)C(=O)C(F)(CCN1CCC(NS(C)(=O)=O)CC1)c1ccc(Cl)c(Cl)c1` (stereo not shown) [Example 65, N-(3-Chlorobenzyl)-2-(3,4-dichloro-phenyl)-2-fluoro-4-(4-methanesulfonyl-amino-piperidin-1-yl)-N-methyl-butyramide] was run?
Answer: 307 nM

Question: `CC(=O)N(C)C1CCN(CCC(C)(C(=O)NCc2ccc(Cl)c(Cl)c2)c2ccc(Cl)c(Cl)c2)CC1` (stereo not shown) [Example 101, 4-[4-(Acetyl-methyl-amino)-piperidin-1-yl]-N-(3,4-dichloro-benzyl)-2-(3,4-dichloro-phenyl)-2-methyl-butyramide] was tested. Which Ki [1] did it give?
Answer: 6.8 nM

Question: What about the Ki [2] of the same compound?
Answer: 6.8 nM

Question: Which Ki [1] does the source give for `CC(=O)NC1CCN(CCC(C)(C(=O)N[C@@H](CO)c2ccc(Cl)cc2)c2ccc(Cl)c(Cl)c2)CC1` (single isomer, unassigned; diastereoisomer 2) [Example 157, 4-(4-Acetylamino-piperidin-1-yl)-N-[1-(4-chloro-phenyl)-2-hydroxy-ethyl]-2-(3,4-dichloro-phenyl)-2-methyl-butyramide (diastereoisomer 2)] here?
Answer: 773 nM

Question: How did the Ki [1] turn out when `CC(CCN1CCC(NS(C)(=O)=O)CC1)(C(=O)NCc1ccc(Cl)c(F)c1)c1ccc(Cl)c(Cl)c1` (stereo not shown) [Example 22, N-(4-Chloro-3-fluoro-benzyl)-2-(3,4-dichloro-phenyl)-4-(4-methanesulfonyl-amino-piperidin-1-yl)-2-methyl-butyramide] was run?
Answer: 70.8 nM

Question: How did the Ki [1] turn out when `CN(Cc1ccc(F)c(C(F)(F)F)c1)C(=O)C(C)(CCN1CCC(N2CCCC2=O)CC1)c1ccc(Cl)c(Cl)c1` (stereo not shown) [Example 86, 2-(3,4-Dichlorophenyl)-N-(4-fluoro-3-trifluoromethyl-benzyl)-2,N-dimethyl-4-[4-(2-oxo-pyrrolidin-1-yl)-piperidin-1-yl]-butyramide] was run?
Answer: 1.4 nM

Question: And the Ki [2]?
Answer: 1.4 nM

Question: Which Ki [1] does the source give for `COCCN(C(C)=O)C1CCN(CCC(C)(C(=O)N[C@@H](CO)c2ccc(F)cc2)c2ccc(Cl)c(Cl)c2)CC1` (single isomer, unassigned) [Example 150, 4-{4-[Acetyl-(2-methoxy-ethyl)-amino]-piperidin-1-yl}-2-(3,4-dichloro-phenyl)-N-[(R)-1-(4-fluoro-phenyl)-2-hydroxy-ethyl]-2-(R or S) methyl-butyramide] here?
Answer: 1.7 nM

Question: And the Ki [2]?
Answer: 1.7 nM

Question: For `CCN(C1CCN(CCC(C)(C(=O)N(C)Cc2ccc(C(F)(F)F)cc2)c2ccc(Cl)c(Cl)c2)CC1)S(C)(=O)=O` (stereo not shown) [Example 76, 2-(3,4-Dichloro-phenyl)-4-[4-(ethyl-methanesulfonyl-amino)-piperidin-1-yl]-2,N-dimethyl-N-(4-trifluoromethyl-benzyl)-butyramide], which Ki [1] is on record?
Answer: 1.7 nM

Question: And the Ki [2]?
Answer: 1.7 nM

Question: For `CC(CCN1CCC(N2CCCC2=O)CC1)(C(=O)N[C@@H](CO)c1ccc(F)cc1)c1ccc(Cl)c(Cl)c1` (single isomer, unassigned) [Example 130, 2-(3,4-Dichloro-phenyl)-N-[(R)-1-(4-fluoro-phenyl)-2-hydroxy-ethyl]-2-(S or R) methyl-4-[4-(2-oxo-pyrrolidin-1-yl)-piperidin-1-yl]-butyramide], which Ki [1] is on record?
Answer: 101 nM

Question: Which Ki [1] does the source give for `CC(=O)N(C1CC1)C1CCN(CCC(C)(C(=O)N[C@@H](CO)c2ccc(Cl)c(Cl)c2)c2ccc(Cl)c(Cl)c2)CC1` (single isomer, unassigned; diastereoisomer 1) [Example 144, 4-[4-(Acetyl-cyclopropyl-amino)-piperidin-1-yl]-2-(3,4-dichloro-phenyl)-N-[1-(3,4-dichloro-phenyl)-2-hydroxy-ethyl]-2-methyl-butyramide (diastereoisomer 1)] here?
Answer: 10.1 nM

Question: With `COc1cc(CN(C)C(=O)C(C)(CCN2CCC(NS(C)(=O)=O)CC2)c2ccc(Cl)c(Cl)c2)ccc1OC(F)F` (stereo not shown) [Example 5, 2-(3,4-Dichloro-phenyl)-N-(4-difluoromethoxy-3-methoxy-benzyl)-4-(4-methanesulfonyl-amino-piperidin-1-yl)-2,N-dimethyl-butyramide] as the compound, how does the Ki [1] read?
Answer: 272 nM

Question: With `CN(Cc1ccc(C(F)(F)F)c(F)c1)C(=O)C(CCN1CCC(NS(C)(=O)=O)CC1)c1ccc(Cl)c(Cl)c1` (stereo not shown) [Example 32, 2-(3,4-Dichloro-phenyl)-N-(3-fluoro-4-trifluoromethyl-benzyl)-4-(4-methanesulfonyl-amino-piperidin-1-yl)-N-methyl-butyramide] as the compound, how does the Ki [1] read?
Answer: 61.7 nM

Question: `CN(Cc1ccc(Cl)c(Cl)c1)C(=O)C(F)(CCN1CCC(N(C)S(C)(=O)=O)CC1)c1ccc(Cl)c(Cl)c1` (stereo not shown) [Example 56, N-(3,4-Dichloro-benzyl)-2-(3,4-dichloro-phenyl)-2-fluoro-4-[4-(methanesulfonyl-methyl-amino)-piperidin-1-yl]-N-methyl-butyramide] was tested. Which Ki [1] did it give?
Answer: 22.8 nM

Question: With `CC[C@H](NC(=O)C(C)(CCN1CCC(N2CCCC2=O)CC1)c1ccc(Cl)c(Cl)c1)c1ccccc1` (stereo partly drawn) [Example 127, 2-(3,4-Dichloro-phenyl)-2-methyl-4-[4-(2-oxo-pyrrolidin-1-yl)-piperidin-1-yl]-N-((S)-1-phenyl-propyl)-butyramide] as the compound, how does the Ki [1] read?
Answer: 5.2 nM

Question: What about the Ki [2] of the same compound?
Answer: 5.2 nM

Question: `CN(C1CCN(CCC(C)(C(=O)N[C@H](CO)c2ccc(Cl)c(Cl)c2)c2ccc(Cl)c(Cl)c2)CC1)S(C)(=O)=O` (single isomer, unassigned; diastereoisomer 2) [Example 50, 2-(3,4-Dichloro-phenyl)-N-[1-(3,4-dichloro-phenyl)-2-hydroxy-ethyl]-4-[4-(methanesulfonyl-methyl-amino)-piperidin-1-yl]-2-methyl-butyramide; diastereoisomer 2] was tested. Which Ki [1] did it give?
Answer: 52.1 nM

Question: With `CC(=O)N(C)C1CCN(CCC(C)(C(=O)N(C)Cc2ccc(F)c(C(F)(F)F)c2)c2ccc(Cl)c(Cl)c2)CC1` (single isomer, unassigned) [Example 121, (S or R)-4-[4-(Acetyl-methyl-amino)-piperidin-1-yl]-2-(3,4-dichloro-phenyl)-N-(4-fluoro-3-trifluoromethyl-benzyl)-2,N-dimethyl-butyramide] as the compound, how does the Ki [1] read?
Answer: 173 nM

Question: For `CS(=O)(=O)NC1CCN(CCC(C(=O)NCc2ccc(Cl)c(C(F)(F)F)c2)c2ccc(Cl)c(Cl)c2)CC1` (stereo not shown) [Example 36, N-(4-Chloro-3-trifluoromethyl-benzyl)-2-(3,4-dichloro-phenyl)-4-(4-methanesulfonyl-amino-piperidin-1-yl)-butyramide], which Ki [1] is on record?
Answer: 354 nM

Question: How did the Ki [1] turn out when `CN(Cc1ccc(F)c(C(F)(F)F)c1)C(=O)C(C)(CCN1CCC(N2CCCC2=O)CC1)c1ccc(Cl)c(Cl)c1` (single isomer, unassigned) [Example 118, (S or R)-2-(3,4-Dichloro-phenyl)-N-(4-fluoro-3-trifluoromethyl-benzyl)-2,N-dimethyl-4-[4-(2-oxo-pyrrolidin-1-yl)-piperidin-1-yl]-butyramide; hydrochloride] was run?
Answer: 171 nM
